The results in this text go back to PubChem BioAssay (NCI).

Test systems include DMS 114 small cell lung; HOP-62 NSCLC; K-562 leukemia; KM20L2 colon; OVCAR-8 ovarian; SF-268 CNS; SN12C renal; SNB-78 CNS; HS 578T breast; T-47D breast.
What all share (assay): NCI anticancer screen, dose series, 48 h

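Where inhibition never reached the appropriate level, the endpoint shown equals the highest concentration tested. Otherwise, values were interpolated linearly from a five-concentration, 48-hour dose response in 96-well plates. At the GI50, growth is halved. At the TGI there is no net growth.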

Regarding `COC(=O)C(=O)C(C(=O)C=C(C)C)C(=O)C(=O)Nc1nc2ccc([N+](=O)[O-])cc2s1` (centres undefined), the TGI in the experiment on DMS 114 small cell lung, in the experiment with HOP-62 NSCLC, in the experiment on K-562 leukemia, in the experiment with KM20L2 colon, in the experiment on OVCAR-8 ovarian and in the experiment on SF-268 CNS was over 100 µM each time. The TGI in the experiment on SN12C renal and in the experiment with SNB-78 CNS was over 100 µM throughout.

Turning to `NNC(=O)N/N=C1\C(=O)N(c2nccs2)C(=O)C(=O)C1c1nc2ccccc2s1` (centres undefined), the TGI in the experiment on DMS 114 small cell lung, in the experiment with HOP-62 NSCLC, in the experiment with KM20L2 colon, in the experiment with OVCAR-8 ovarian, in the experiment on SF-268 CNS and in the experiment on SN12C renal was over 100 µM each time. In the experiment with SNB-78 CNS, the TGI was over 100 µM.

For the molecule `COc1cc2c(cc1OC)c1c(OC)c(OC)cc3c1c1c2sc(=S)n1CC3`, the TGI is 98.1 µM in the experiment on DMS 114 small cell lung; over 100 µM in the experiment with K-562 leukemia; over 100 µM with KM20L2 colon; over 100 µM in the experiment on OVCAR-8 ovarian; over 100 µM in the experiment on SF-268 CNS; over 100 µM in the experiment with SN12C renal. This molecule also returned a TGI in the experiment on SNB-78 CNS of over 100 µM.

For the molecule `COc1cc(CC(C(=O)O)C(=O)O)c(OC)cc1CC(C(=O)O)C(=O)O`, the TGI in the experiment with DMS 114 small cell lung, in the experiment with HOP-62 NSCLC, with K-562 leukemia, in the experiment with KM20L2 colon, in the experiment with OVCAR-8 ovarian and in the experiment on SF-268 CNS was over 100 µM in each case. Besides, the TGI in the experiment on SN12C renal and in the experiment with SNB-78 CNS was over 100 µM each time.

As to `O=C(O)CCSC(=S)Nc1cccc(F)c1`, the TGI is 51.8 µM in the experiment with DMS 114 small cell lung; over 100 µM in the experiment on HOP-62 NSCLC; over 100 µM in the experiment with K-562 leukemia; over 100 µM in the experiment on KM20L2 colon; over 100 µM with OVCAR-8 ovarian; over 100 µM in the experiment with SF-268 CNS. The TGI in the experiment with SN12C renal and in the experiment with SNB-78 CNS was over 100 µM in each case.

With `Nc1ccc2c(c1)Oc1c(F)c(F)cc3c(=O)c(C(=O)O)cn-2c13`, the TGI in the experiment with DMS 114 small cell lung, with HOP-62 NSCLC, in the experiment on K-562 leukemia, in the experiment with KM20L2 colon, in the experiment on OVCAR-8 ovarian and in the experiment on SN12C renal was over 100 µM throughout.

`CCOC(=O)c1c2cccccc2n2c(=O)cc(C)nc12`: the TGI in the experiment on HOP-62 NSCLC, with K-562 leukemia, in the experiment on KM20L2 colon, with OVCAR-8 ovarian, in the experiment on SF-268 CNS and in the experiment with SN12C renal was over 100 µM in each case. The same molecule yielded a TGI in the experiment with SNB-78 CNS of over 100 µM.

Take `O=C1[C@H](Cl)[C@H]2c3cc4ccccc4nc3Oc3ccccc3N12`: the TGI in the experiment with DMS 114 small cell lung was 70.2 µM; in the experiment with HOP-62 NSCLC, over 100 µM; in the experiment with KM20L2 colon it was over 100 µM; in the experiment with OVCAR-8 ovarian, over 100 µM; in the experiment on SF-268 CNS, over 100 µM; in the experiment on SN12C renal it was over 100 µM.

Consider `Cc1cc(C)nc(NS(=O)(=O)c2ccc(NC(=O)c3ccc(Cl)c4c(Nc5ccc(S(=O)(=O)N=C(N)N)cc5)c5ccccc5nc34)cc2)n1`, for which the TGI is 93.6 µM in the experiment on DMS 114 small cell lung; over 100 µM in the experiment with HOP-62 NSCLC; over 100 µM in the experiment on K-562 leukemia; over 100 µM with KM20L2 colon; over 100 µM with OVCAR-8 ovarian; over 100 µM with SF-268 CNS. The values for the TGI with SN12C renal and in the experiment with SNB-78 CNS were 68.7 µM and over 100 µM, respectively.

In the case of `CCOC(=O)C1SC(=Nc2ccc(Cl)cc2C)N=C1C` (centres undefined), the TGI with DMS 114 small cell lung is 35.3 µM; with HOP-62 NSCLC it was 43.2 µM; in the experiment on K-562 leukemia, 51.3 µM; with KM20L2 colon it was 32.1 µM; in the experiment on OVCAR-8 ovarian, over 100 µM; in the experiment on SF-268 CNS, 94.5 µM. Moreover, the TGI in the experiment with SN12C renal came to 41.4 µM; with SNB-78 CNS, 76.7 µM.

In the case of `CC1=C2[C@H](c3ccccc3)C3C=CC2(c2ccccc23)N(C(=O)C(c2ccccc2)c2ccccc2)C1=O` (some centres undefined), the TGI with DMS 114 small cell lung, with HOP-62 NSCLC, with K-562 leukemia, in the experiment with KM20L2 colon, with OVCAR-8 ovarian and in the experiment with SF-268 CNS was over 100 µM throughout. In addition, the TGI with SN12C renal is over 100 µM.

Take `COc1ccc(NC(=O)CCc2cc(C(C)(C)C)n[nH]2)cc1`: the TGI in the experiment on HOP-62 NSCLC, in the experiment on K-562 leukemia, in the experiment with KM20L2 colon, in the experiment with OVCAR-8 ovarian, in the experiment with SF-268 CNS and with SN12C renal was over 100 µM in each case. Moreover, the TGI in the experiment with SNB-78 CNS is over 100 µM.

Take `CC(=N)N(C)O`: the TGI with DMS 114 small cell lung was 33.2 µM; in the experiment on HOP-62 NSCLC, over 100 µM; with K-562 leukemia, over 100 µM; in the experiment on KM20L2 colon, over 100 µM; in the experiment with OVCAR-8 ovarian, over 100 µM; with SF-268 CNS, over 100 µM. The TGI in the experiment with SN12C renal and with SNB-78 CNS was over 100 µM each time.

Turning to `CCCCCCCCCCCCCC(=O)OCC1OC(n2cc(F)c(=O)[nH]c2=O)C(N)C(OC(=O)CCCCCCCCCCCCC)C1O` (centres undefined), the TGI in the experiment with DMS 114 small cell lung, in the experiment on HOP-62 NSCLC, in the experiment on K-562 leukemia, in the experiment with KM20L2 colon, with OVCAR-8 ovarian and in the experiment on SF-268 CNS was over 100 µM each time. The TGI in the experiment on SN12C renal and in the experiment on SNB-78 CNS was over 100 µM each time.

As to `COc1ccc(/C=c2/sc3n(c2=O)NC(c2ccc(Cl)cc2)NN=3)cc1` (centres undefined), the TGI in the experiment with DMS 114 small cell lung, with K-562 leukemia, in the experiment with KM20L2 colon, in the experiment with OVCAR-8 ovarian, with SF-268 CNS and in the experiment with SN12C renal was over 100 µM each time. The molecule also returned a TGI with SNB-78 CNS of over 100 µM.

Regarding `Cc1cn2c(/C=C3/C(=O)Nc4ccc(F)cc43)c(C)nc2s1`, the GI50 in the experiment with HOP-62 NSCLC is 8.81 µM; with HS 578T breast, 7.98 µM; with K-562 leukemia, 1.72 µM; with OVCAR-8 ovarian it was 10.4 µM; with SF-268 CNS, 12.6 µM; in the experiment on SN12C renal, 8.56 µM. Moreover, the GI50 in the experiment on T-47D breast is 10.2 µM. Besides, the TGI with HOP-62 NSCLC was over 50 µM; in the experiment with HS 578T breast, 28.2 µM; in the experiment with K-562 leukemia it was over 50 µM; in the experiment with OVCAR-8 ovarian, over 50 µM; with SF-268 CNS it was over 50 µM; in the experiment on SN12C renal, 27.4 µM. Also, the TGI in the experiment with T-47D breast is over 50 µM.
